From patent publication US20220313595A1, “Oral Care Compositions Comprising Hops” (The Procter & Gamble Company, priority 2021, published 2022)

System: plaque biofilm grown from fresh pooled human saliva
Assay: in vitro plaque glycolysis model (iPGRM): acid production and acid inhibition
Assay type: cell-based, plaque microorganisms from human saliva
Conditions: TABLE 2, 3-day biofilm
Protocol: Acid production and acid inhibition were determined with the in vitro plaque glycolysis model (iPGRM). The purpose of this technique is to provide a simple and quick method for determining if compounds have an influence on the metabolic pathways that plaque microorganisms utilize to produce toxins that adversely affect gingival health. It is also useful to determine if compounds have an influence on the metabolic pathways that plaque microorganisms utilize to produce plaque acids that adversely affect teeth.
The in vitro plaque glycolysis model (iPGRM) is a technique in which plaque is grown from human saliva and treated with various agents to determine anti-glycolytic activity of treatments. When bacteria convert sugar into energy with the help of enzymes, acids are formed. These acids demineralize and damage the dental enamel. […]
[…] The pH of the media solutions was then measured to determine the amount of glycolysis inhibition relative to a negative control.
On Day 1, new glass rods (5 mm×90 mm) were polished approximately 25 mm from the un-tapered end on a lathe with silicon carbide paper of 240, 320, 400, and 600 grit used sequentially. […] After polishing, rods were stored until ready to run test. […]

[H]/N=C(\N/C(=N/[H])NCCCCCCNC(=N)NC(=N)Nc1ccc(Cl)cc1)Nc1ccc(Cl)cc1 [1% Chlorhexidine, Chlorhexidine]
Acid Production (ΔpH) Mean (2 min treatment with dentifrice slurry or diluted treatment in water (1:5), ΔpH vs blank vials): 0.30 ΔpH
Mean Acid Inhibition (%) Mean (relative to negative control Crest Cavity Protection): 80.77%
